Data reported in publication PMC6155746 (Molecules : A Journal of Synthetic Chemistry and Natural …, 2017).
Several values for one entry are separate records, joined by “and”; a condition that tells them apart may be missing. Identical values can stand only once. Like-named read-outs stand apart in the source and are kept apart here.

Columns and labels:
plasma glucose levels = system: plasma glucose levels; design: method as in PMID 23597793, PMID 23453304; details: non-insulin dependent diabetes mellitus rat model, 7 h post-administration, Compound 1 at 50 mg/kg single dose; cited from earlier work
[1] = pKa determination via potentiometric analysis; assay type: physicochemical; details: methanol/aqueous solution of ionic strength 0.02 M; Mean (±S.D.), potentiometric titration, triplicate; read-out: pKa1
Method: The determination of pKa was undertaken as described by Babic A. et al.. Compound 1 was prepared by weighing 0.001 equivalents, which were dissolved in the minimum volume of methanol, to which aqueous solution with an ionic strength of 0.02 M was added to obtain a final concentration for Compound 1 of 0.006 M. It was titrated with NaOH 0.01 N, which had been previously evaluated with an ionic strength of 0.02 M using Logger Pro 3.5.0 software (Vernier Software & Technology, Beaverton, OR, USA). The study was conducted in triplicate, determining the final points using the criteria from the first and second derivative test.

[2] = Permeability assay, everted rat gut model; assay type: in vitro ADME, Wistar rats; details: for Papp at 120 min, 100 μM: male, Wistar, rat, everted rat gut, 37 °C, A-B
Method: Male Wistar rats weighing 200–250 g were used in this research. Everted intestinal sacs were prepared by quickly removing the small intestine from starved rats killed under ether anesthesia. All experiments were carried out after pre-incubation at 37 ± 0.5 °C, with the duodenum and jejunum then excised, flushed-through several times with saline solution at room temperature, and placed immediately into simulated intestinal fluid (SIF). The intestine was gently everted over a steel rod and filled with fresh SIF. The sacs were preincubated in oxygenated buffer solution for 5 min and then placed in 100 mL of oxygenated SIF solution containing 0.0001 M (100 μM) of Compound 1 at 37 °C. Oxygen was bubbled with a pump to maintain viable tissue.
The everted intestinal sac was filled with 1.5 mL of SIF solution, while a test compound solution (0.0001 M) remained external to the everted sac. […] 300 μL samples were collected from inside the sac with a metallic cannula at 5, 10, 15, 30, 45, 60, 90, and 120 min (apical-basolateral transport A-B), after which a medium replacement was made. Both an initial and final sample of the outside solution were analyzed by HPLC.
The apparent intestinal permeability (Papp) was calculated according to Equation (2): (2) Papp=V/(A∗Co)dC/dt where Papp = Apparent Permeability (cm/s), V = Intestinal Volume (mL), A = Surface Area (cm^2), dC/dt = Concentration Gradient, and, Co = Initial Concentration (μg/mL).

[3] = Bioavailability / pharmacokinetic study, oral and intravenous administration; assay type: in vivo, Wistar rats; design: average clearance (CL): unit not given here; details: for half-life: read-out: T1/2el (converted)
Method: Male Wistar rats weighing 250–300 g were used for pharmacokinetic evaluation. Animals were individually identified by tail markings and acclimated to the study environment for seven days prior to the administration of the dose. Animals were kept on a 12 h light/dark cycle except when this was interrupted for study procedures. Animals were kept at average room temperature, which was regulated in the range of 18 to 29 °C. The animals were fasted prior to dose administration, and had access to water ad libitum.
Rats were anesthetized with ether and cannulated via the caudal vein using polyethylene tubing with an internal diameter of 0.023 inches, and an outer diameter of 0.038 inches (Becton Dickinson Clay Adams).
Compound 1 was prepared with Cremophore (10%) in physiologic saline solution and administered orally in a 50 mg/kg dose, and via intravenous bolus (50 mg/kg). Study was conducted in quintuplicate.
After dosing, serial blood samples were collected (0.2 mL) 0, 0.083, 0.16, 0.25, 0.33, 0.50, 0.75, 1.0, 1.5, 2.0, 3.0, 4.0, 6.0, and 8 h after both oral and intravenous administration using heparinized (20 UI) tubes, and were centrifuged at 5000× g for 10 min, with the plasma harvested and analyzed by HPLC using the previously validated method.
The pharmacokinetic parameters of Compound 1 were obtained via non-compartmental analysis using PK software (PKSolver). The STATA statistical program, version 12, was used for the comparison of the following: the pharmacokinetic parameters obtained via both administration pathways (Cmax and Tmax); the elimination rate constant (kel); the biological half-life; the area under the curve (AUC0–t); the area under the curve from zero to infinity (AUC0–∞); volume of distribution (Vd); clearance (Cl); and, absolute bioavailability (F).

[4] = system: 11β-hydroxysteroid dehydrogenase type 1 (11β-HSD1); design: method as in PMID 23597793; details: at 10 μM, HEK293 cells; cited from earlier work
[5] = Apparent partition coefficient (octanol-water log D, shake-flask); assay type: physicochemical; details: n-octanol/phosphate buffer
Method: The octanol-water distribution coefficient was determined using the shake-flask method. The two phases were mutually saturated by shaking for 15 min. Phosphate buffers were used as the aqueous phase for the pH range 1.2 to 13. 5 mL portions of different buffer solutions (pH 1.2 to 13) containing 100 μg/mL of Compound 1 were mixed with 2.5 mL of n-Octanol. The mixture was shaken for 30 min, centrifuged at 8000× g for 10 min, after which the aqueous and organic phases were separated. Aqueous samples were analyzed at 222 nm using a validated spectrophotometric method (5–200 μg·mL^−1). The distribution coefficient (log D) was calculated according to Equation (1) for each pH value: (1) Log D=log[Compound]org/[Compound ]aq where [Compound]org is the drug concentration in the organic phase (determined by mass balance) and [Compound]aq is the drug concentration in the aqueous phase for each buffer solution. Every experiment was evaluated in triplicate.

[6] = reported in the rat, oral; cited from earlier work
rat = details: in vivo, po; cited from earlier work
[7] = duodenum, read-out: Papp Duodenum
[8] = jejunum, read-out: Papp Jejunum
[9] = Compound 1, intravenous, 50 mg/kg, Wistar rat, mean
[10] = Compound 1, oral, 50 mg/kg, Wistar rat, mean
[11] = male, plasma, Compound 1, intravenous, 50 mg/kg, Wistar rat, mean
[12] = male, plasma, Compound 1, oral, 50 mg/kg, Wistar rat, mean

## COc1ccc(Cl)cc1C(=O)NCCc1ccc(S(=O)(=O)NC(=O)NC2CCCCC2)cc1 [glibenclamide, reference compound]
Plasma glucose levels
  reduction in glucose levels in the plasma: 40%

## CC(C)(Oc1ccc(Cl)cc1)C(=O)Nc1nnn[nH]1 [Compound 1, 2-(4-chlorophenoxy)-2-methyl-N-(1H-tetrazol-5-yl) propanamide]
[1]
  pKa: 4.43
Plasma glucose levels
  reduction in glucose levels in the plasma: up to 77%
[2]; compared to the standards naproxen and amoxicillin
  permeability classification: low permeability
[2]; [7]
  Papp at 120 min, 100 μM: 8.73 ×10⁻⁶ cm/s
[2]; [8]
  Papp at 120 min, 100 μM: 16.2 ×10⁻⁶ cm/s
[3]; Compound 1, intravenous
  average ABC0–α: 38.8 µg·h/mL
[3]; [9]
  ABC0–t: 30.5 μg/mL·h
  ABC0–α: 38.8 μg/mL·h
  Cl: 484.5 mL/h
[3]; Compound 1, oral
  average ABC0–α: 2.58 µg·h/mL
  average clearance (CL): 751.2
[3]; [10]
  ABC0–t: 2.37 μg/mL·h
  ABC0–α: 2.58 μg/mL·h
  Cl: 751.2 mL/h
  Ka: 3.05 h⁻¹
[3]; male, Wistar, rat, plasma, 50 mg/kg, Compound 1, intravenous, read-out: average clearance (CL) (converted)
  clearance: 8.07 mL/min
[3]; male, Wistar, rat, plasma, iv, 50 mg/kg, Compound 1, intravenous, 50 mg/kg, Wistar rat, mean
  half-life: 42.6 min
[3]; male, Wistar, rat, plasma, po, 50 mg/kg, Compound 1, oral, 50 mg/kg, Wistar rat, mean
  half-life: ~22.8 min
[3]; [11]
  Vd: 0.4 L and 1.3 L/kg
  k el: 0.000336 s⁻¹
[3]; male, plasma, Compound 1, oral vs intravenous, 50 mg/kg, Wistar rat, mean
  bioavailability: 10.4%
[3]; [12]
  Cmax: 3570 ng/mL
  Tmax: 19.8 min
  k el: 0.000503 s⁻¹
[4]
  inhibition of 11β-HSD1: 51.17%
[5]; pH 1 to 5
  log D: positive
[5]; pH 7
  Log D: below zero

## CC(C)(Oc1ccc(Cl)cc1)C(=O)O [Compound 2, Clofibric acid]
[6]
  average lifetime (half-life) of clofibric acid: 7 to 8 h
rat
  DL50: 940 mg/kg

## CC1(C)S[C@@H]2[C@H](NC(=O)[C@H](N)c3ccc(O)cc3)C(=O)N2[C@H]1C(=O)O [Amoxicillin, amoxicillin, reference compound]
[2]; [7]
  Papp at 120 min, 100 μM: 8.52 ×10⁻⁶ cm/s
[2]; [8]
  Papp at 120 min, 100 μM: 10 ×10⁻⁶ cm/s
